According to patent US20130202614A1, “AUTOTAXIN PATHWAY MODULATION AND USES THEREOF” (B.S.R.C. "ALEXANDER FLEMING", priority 2010, published 2013):

Experiments:
ATX [1] = biological target: T1, ATX (Mus musculus, UniProt Q9R1E6); assay: ATX activity assay (FS-3 cleavage) in BAL fluids, LPS model; format: in vivo; conditions: intratracheal prior to LPS; 24 hr
T1 construct: from tissue; host or cells: BAL fluid of WT mice exposed to aerosolised LPS
Description: Autotaxin activity in BALF of mice was determined using the cleavage of the ATX-specific fluorogenic substrate FS-3 (Echelon Biosciences, UT, USA). Assays were conducted in a final volume of 100 μl comprising 20 μl 5× assay buffer (700 mM NaCl, 25 mM KCl, 5 mM MgCl2 and 250 mM Tris, pH 8.0), 20 μl of FS-3 (final concentration 2.5 μM) and 60 μl of BALF (diluted 1:2 in 1×PBS). Reactions were incubated at 37° C. in a Tecan Infinite 200 microplate reader (Tecan Trading AG, Switzerland) set to make fluorescence measurements every 5 min for 1 hour. Autotaxin activity was quantitated by measuring the rate of increase in fluorescence at 528 nm with excitation at 485 nm.

ATX [2] = biological target: T1, ATX; assay: ATX activity assay (FS-3 cleavage) in plasma of saline- and BLM-treated mice; format: in vivo; conditions: both in saline- and BLM-treated mice
Description: […] […] Reactions were incubated at 37° C. in a Tecan Infinite 200 microplate reader (Tecan Trading AG, Switzerland) set to make fluorescence measurements every 5 min for 1 hour. Autotaxin activity was quantitated by measuring the rate of increase in fluorescence at 528 nm with excitation at 485 nm.

ATX [3] = assay: ATX ELISA in plasma and BAL fluids of control and BLM treated mice; format: in vivo, mouse; conditions: saline treated, naive mice; same trend in BLM-treated mice
Description: To detect ATX in biological fluids, a direct ELISA assay was developed using the commercially available anti-phospholipase D polyclonal antibody (Cat. No. 10005375, Cayman chemical, USA). The bottom of a NUNC-IMMUNO 96 MicroWell Elisa plate was coated overnight with 100 μl of 1:200 diluted serum in 0.05 M carbonate/bicarbonate coating buffer, pH 9.5 (Cat. No. S7795/S7277, Sigma, Saint Louis, […]., USA), washed three times with 0.05% Tween-20 (Cat. No. P1379, Sigma, USA) in TBS and blocked with 0.1% Bovine Serum Albumin (Cat. No. A7888, Sigma, USA) in 0.05% TBST for 1 h at RT. For each ELISA assay, 100 μl of two-fold serial dilutions of recombinant ATX protein ranging from 0.1 to 1.6 μg/ml were plated as standard curve and treated as all samples.
The plate was then incubated with 0.5 μg/ml detection antibody for 1 h and washed three times with 0.05% TBST. Autotaxin antigen was then detected with an anti-rabbit HRP-labeled secondary antibody (Cat. No. 4010-05, SouthernBiotech, USA) that was developed with TMB substrate (Cat. No. […], Sigma, USA). Readings were obtained at 450 nm. All samples and standards were assayed in triplicates.

CIA in DBA/1 mice = assay: Experimental arthritis (collagen induced arthritis, CIA) in mice; format: in vivo, mouse; conditions: injected intraperitoneally twice a week
WT mice (C57/BL6) = assay: BLM-induced pulmonary fibrosis in mice; format: in vivo, mouse
Description: 8-12 week old littermate mice were divided into an experimental group that received intratracheal Bleomycin (BLM, 0.08 U) and a control group that received Normal Saline instead. Mice were sacrificed at 7 and 14 days post BLM instillation for pathology evaluation.
Age and sex-matched 6-8 week old WT (C57/Bl6) mice were divided in four study groups according to the treatment regime.
Group A (n=5) received i.p injections of Veh (water) twice per week for two weeks starting at day −1 and instilled with Saline intratracheally at day 0.
Group B (n=3) received i.p injections of BRP-LPA (10 mg/Kg) twice per week for two weeks starting at day −1 and instilled with Saline intratracheally at day 0.
Group C (n=9) received i.p injections of Veh twice per week for two weeks starting at day −1 and instilled with BLM (0.08 U) intratracheally at day 0.
Group D (n=8) received i.p injections of BRP-LPA (10 mg/Kg) twice per week for two weeks starting at day −1 and instilled with BLM (0.08 U) intratracheally at day 0. A schematic representation of the time course of the protocol is depicted below.
All mice were sacrificed at day 14 after BLM instillation for disease evaluation. […] Lungs were lavaged 3 times with 1 ml aliquots of saline (BAL) followed by perfusion through the right ventricle of the heart with 10 ml of PBS. BAL fluid was centrifuged and cell pellets were used for total cell counts with Trypan Blue while the supernatant was snap frozen.
Right lung was instilled with 1 ml of buffered formalin, dissected and fixed O/N in formalin. Left lung was snap frozen and used for soluble collagen measurements using the Sircol assay.
Schematic representation of BRP-LPA administration protocol. BRP-LPA (or water) was administered intraperioneally in mice starting one day before BLM (or Sal) instillation and every three other days until the end of the study (14 days). Pulmonary fibrosis was induced with a single i.t. instillation of BLM at day 0.
Soluble collagen measurements were performed using the Sircol reagent according to manufacture's recommendations.

EAE mice = assay: Experimental autoimmune encephalomyelitis (EAE), animal model of MS; format: in vivo, mouse; conditions: injected intraperitoneally twice a week at 10 mg/Kg
Description: Active EAE in wild-type C57Bl/6 mice was induced as described. Briefly, the mice were challenged in the […] with an emulsion containing 50 μg of MOG p35-55 peptide ( ) supplemented with 8 mg/ml heat-inactivated Mycobacterium tuberculosis (H37Ra strain; Difco Laboratories) in CFA (Difco Laboratories) on day 0 in the tail base. Booster immunization with an identical emulsion was given on both sides. Bordetella pertussis toxin (PT) (List Biologicals) were administered i.p. (200 ng/mouse) 48 h after the immunization. For induction of EAE in MOGi-cre/Atx^n/n mice, the doses for MOG35-55 peptide and PT were the same as for wild type mice Atx^n/n. From mice injected at 8 to 12 weeks of age, representative animals were fixed for immunohistochemistry (4% paraformaldehyde in phosphate-buffered saline) and then 7-μm thick frozen sections were used for immunohistochemistry, or fixed in 10% buffered formalin overnight at 4° C. for histopathology. […]
Mice were observed daily for clinical signs of EAE. The severity of EAE was evaluated and scored as follows: 0, no clinical disease; 1, tail paralysis; 2, hindlimb weakness and abnormal gait (incomplete paralysis of one or two hindlimbs); 3, paraplegia (complete paralysis of one or two hindlimbs); 4, quadriplegia; 5, moribund or dead animals.

WT mice = assay: LPS-induced lung inflammation (aerosolised LPS) in mice; format: in vivo, mouse
Description: 6-8 week old littermate mice were divided into an experimental group that received aerosolised LPS (from Pseudomonas aeruginosa, 10 mg dissolved in 3 ml Normal Saline) and a control group that received Normal Saline instead. […] The LPS solution was administered by a custom-made nebuliser flowing at 4 l/min oxygen for 20-25 min into an airtight chamber containing 5-7 mice. All analyses were performed 24 h later.
Upon euthanasia, blood was drawn from the vena cava and was added to 50 mM EDTA for plasma preparations. Lungs were lavaged with an aliquot of 1 ml normal saline followed by 2 ml of saline (Bronchoalveolar Lavage Fluid. BALF). BALF aliquots were centrifuged; the cell pellets were combined and used for total cell counts with Trypan Blue while supernatants were snap-frozen. Lungs were then perfused with 10 ml of PBS through the spontaneous beating right ventricle and the left lung was snap-frozen for future analysis while the right lung was fixed in 10% neutral buffered formalin. Tissues were embedded in paraffin, and 5-μm-thick sections were cut at the median transverse level of the lungs. Sections were mounted on glass slides and stained with H&E.
Total protein concentration in BALFs was measured using the Bradford protein assay (Biorad, Hercules, Calif.) according to manufacturer's recommendations. OD readings of samples were converted to μg/ml using values obtained from a standard curve generated with serial dilutions of bovine serum albumin (50-500 μg/ml).

CCCCCCCCCCCCCCCC(=O)OC[C@@H](O)CC(Br)P(=O)(O)O (stereo partly drawn) [BrP-LPA, 1-Bromo-3(S)-hydroxy-4-(palmitoyloxy)butyl-phosphonate]
ATX enzymatic activity in BAL fluids (ATX [1]): failed to detect lower levels of enzymatic activity | ATX activity in plasma (ATX [2]): reduced ATX activity | levels of ATX in plasma and in BAL fluids (ATX [3]): non statistical increase | disease development (clinical and histopathological analysis) (CIA in DBA/1 mice): attenuated disease development | fibrosis development (histopathology, H/E lung sections) (WT mice (C57/BL6); 10 mg/Kg i.p. biweekly, 14 days after BLM, vs vehicle): development of focal areas of fibrosis with a patchy distribution in lung parenchyma | soluble collagen accumulation (WT mice (C57/BL6); 10 mg/Kg i.p., 14 days after BLM, vs Veh-treated mice): significant reduction of collagen accumulation | BAL total cell counts (WT mice (C57/BL6); 14 days post BLM administration, Brp- vs Veh-treated): did not differ | total protein content in BAL fluids (WT mice (C57/BL6); vehicle- vs BrP-treated mice after BLM): did not differ | disease development (clinical score) (EAE mice): attenuated disease development | BAL fluid total cell counts (recruitment of neutrophils in the lungs) (WT mice; BrP-LPA 100 μg/mouse intratracheally prior to aerosolized LPS (10 mg)): 1.9×10^6±0.16 | BAL protein content (WT mice; LPS-exposed mice, vs vehicle-treated mice): significantly elevated | LPS-induced lung inflammation and alveolar edema (histopathology, BALF total cell counts) (WT mice; intratracheal prior to LPS exposure, 24 hr): significant increases | total protein concentration in BAL fluids (WT mice; saline treated mice): increased total protein concentration
